Test results: patent US20110236461A1, “METHODS FOR STIMULATING CHONDROGENESIS UTILIZING A POTASSIUM CHANNEL INHIBITOR” (priority 2008, published 2011)

T1: Kv4.2 potassium channel encoded by Kcnd2 (Homo sapiens, UniProt Q9NZV8)
T1 sequence (Q9NZV8 1-630): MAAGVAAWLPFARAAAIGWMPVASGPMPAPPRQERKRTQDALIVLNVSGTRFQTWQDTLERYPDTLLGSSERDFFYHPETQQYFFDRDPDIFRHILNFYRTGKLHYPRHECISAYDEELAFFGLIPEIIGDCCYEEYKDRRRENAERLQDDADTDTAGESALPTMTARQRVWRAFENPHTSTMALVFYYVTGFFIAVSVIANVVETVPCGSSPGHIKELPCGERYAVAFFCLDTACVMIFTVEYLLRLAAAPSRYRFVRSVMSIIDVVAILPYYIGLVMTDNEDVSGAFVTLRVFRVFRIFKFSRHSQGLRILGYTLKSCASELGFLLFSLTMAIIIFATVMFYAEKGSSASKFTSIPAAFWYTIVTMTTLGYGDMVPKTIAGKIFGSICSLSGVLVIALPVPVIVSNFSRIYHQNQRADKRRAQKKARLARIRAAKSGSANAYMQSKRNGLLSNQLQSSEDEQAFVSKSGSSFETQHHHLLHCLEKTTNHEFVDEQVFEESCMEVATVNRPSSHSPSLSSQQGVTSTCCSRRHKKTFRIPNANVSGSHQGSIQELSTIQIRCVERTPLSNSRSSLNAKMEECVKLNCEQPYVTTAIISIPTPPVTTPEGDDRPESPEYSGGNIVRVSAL

B1: BMP4: bone morphogenetic protein-4 (protein, UniProt P12644 293-408, looked up)
Bone morphogenetic protein 4: SPKHHSQRARKKNKNCRRHSLYVDFSDVGWNDWIVAPPGYQAFYCHGDCPFPLADHLNSTNHAIVQTLVNSVNSSIPKACCVPTELSAISMLYLDEYDKVVLKNYQEMVVEGCGCR

How the values were obtained:
[1] = system: pGL3(4×48) reporter gene (Sox5/6/9 binding sites); assay: PLM transfection assay, pGL3(4×48) luciferase reporter; type: cell-based, murine; details: PLM cultures, relative to control
Protocol: (§1) Primary limb mesenchymal (PLM) cultures were established from CD-1 murine embryonic limbs (E11.5) as previously described (Hoffman et al., J. Cell 174:101-13 (2006); Weston et al., J. Cell Biol., 158:39-51 (2002)). Limb mesenchyme was dissociated by dispase treatment and a single cell suspension was obtained by filtration through a […] cell strainer (BD Biosciences). PLM cells were pelleted by centrifugation at 200×g and resuspended to produce a stock cell suspension at a concentration of 2.0×10^7 cells/ml. Cells were used for transfection (Example 2) or for establishment of cultures for alcian blue staining.
Stock plasmid DNAs were standardized to a concentration of 1 mg/ml. For co-transfections, a ratio of 3:1 gene of interest to reporter gene was used. Luciferase reporter genes consist of a firefly reporter gene, pGL3(4×48), and a Renilla (Renilla reniformis) luciferase reporter phRL-SV40 to normalize for transfection efficiency. Transfections were carried out using Effectene reagent (Qiagen). The pGL3(4×48) reporter contains four repeats of a Sox5/6/9 binding site. Reporter plasmids containing Sox5/6/9 binding sites (pGL3[4×48]) were previously described (Weston et al., J. Cell Biol., 158:39-51 (2002)).
This dose range is consistent with previous studies on butamben binding and inhibition of potassium channels. […]

Sox9 = Sox9 expression in PLM cultures by RT-qPCR; type: cell-based, murine; details: PLM cultures treated for 1 or 3 days, relative to control
Protocol: as §1
To follow the expression of transcripts for Kcnd2 and Sox9, quantitative real-time PCR was performed using the 7500 Fast Sequence Detection System (Applied Biosystems). The primer/probe set used for detection of Sox9 was as described in Weston et al., J. Cell Biol., 158:39-51 (2002). For detection of all other transcripts, TaqMan Gene Expression Assays (Applied Biosystems) were used. Total RNA was isolated from primary cultures, and an aliquot was reverse transcribed to cDNA using a High Capacity cDNA Archive kit (Applied Biosystems). Quantification was performed using ˜10 ng of total RNA and the expression of all genes relative to endogenous rRNA was determined using TaqMan Ribosomal Control Reagents (Applied Biosystems). […]

[2] = system: primary limb mesenchymal (PLM) cultures; assay: alcian blue staining of PLM cultures; type: cell-based, murine; details: PLM transfection assays and alcian blue staining experiments
Protocol: Primary limb mesenchymal (PLM) cultures were established from CD-1 murine embryonic limbs (E11.5) as previously described (Hoffman et al., J. Cell 174:101-13 (2006); Weston et al., J. Cell Biol., 158:39-51 (2002)). Limb mesenchyme was dissociated by dispase treatment and a single cell suspension was obtained by filtration through a […] cell strainer (BD Biosciences). PLM cells were pelleted by centrifugation at 200×g and resuspended to produce a stock cell suspension at a concentration of 2.0×10^7 cells/ml. Cells were used for transfection (Example 2) or for establishment of cultures for alcian blue staining. For the latter, 10 μl of PLM cells were spotted into the well of a 24-well plate, and allowed to adhere for 1 h. Culture medium consisting of 60% Ham's F12 nutrient mix/40% Dulbecco's modified Eagle's medium (DMEM) and supplemented with 10% FBS (Qualified, Invitrogen) was added to each well; this time was considered T=0. Cultures were maintained for a period of up to 4 days, and culture media was replaced on alternate days to minimize handling. For alcian blue staining, culture medium was aspirated and cells were washed once with PBS. Cultures were fixed in 95% ethanol at −20° C. overnight. Fixative was removed by aspiration and cells were sequentially washed once with PBS, followed by 0.2M HCl. Cells were stained overnight with a 1% alcian blue solution prepared in 0.2M HCl.

pGL3(4×48) reporter = pGL3(4×48) reporter in high-density murine limb bud-derived cultures, compounds alone or in combination; type: cell-based; details: BMP4 20 ng/ml, BAB 10 μM, 4310 100 nM; 24 h and 72 h after treatment; normalized to untreated controls
Protocol: High-density murine limb bud-derived cultures were established as previously described (Hoffman 2006). Media was replaced every two days. Cells were transfected on day 0 with pGL3(4×48) (reporter) and phRL-SV40 (to normalize transfection efficiency) plasmids using Effectene transfection reagent (Qiagen). Twenty-four hours after transfection, cells were treated with the following final concentrations of compounds, either individually or in combination: BMP4 (20 ng/ml), butamben (BAB) (10 μM), and the pan-RAR antagonist 4310 (100 nM). Lysates were collected at 24 h and 72 h after treatment. Luciferase activity was measured using the Dual-Luciferase® kit according to the manufacturer's instructions (Promega). Reporter activity was normalized to untreated controls (−) on the same day.

Mmp13 = Mmp13 mRNA in murine limb bud-derived high-density cultures, TaqMan real-time PCR; type: cell-based; details: BMP4 20 ng/ml, BAB 10 μM, 4310 100 nM; RNA at five and ten days; normalized to 5-day control
Protocol: Murine limb bud-derived high-density cultures were established as previously described (Hoffman 2006). Media was replaced every three days. After 24 hours of culture, compounds were added at the following final concentrations: BMP4 (20 ng/ml), BAB (10 μM), and 4310 (100 nM). After 72 hours of culture, ascorbic acid and beta-glycerol phosphate were added to the culture at final concentrations of 126 μM and 1 mM, respectively. RNA was isolated from cultures at five and ten days. Gene expression was assessed using real-time PCR with TaqMan® probe and primer sets (Applied Biosystems, Taqman Gene Expression Assay Mm00439491_m1). All gene expression levels were normalized to the 5-day control (set at 100%). Results are shown in FIG. 7 and are the average of two replicates.

[3] = target: T1, Kv4.2 potassium channel encoded by Kcnd2; details: Winkelman et al. 2005; cited from earlier work
[4] = system: voltage-gated potassium channel Kv1 and 4 classes; details: Winkelman et al. 2005; Beekwilder et al. 2003; cited from earlier work

Molecule	activity of chondrogenic responsive reporter gene pGL3(4×48) [1]	Sox9 expression (Sox9)	chondrogenic activity [2]	pGL3(4×48) reporter gene activity (pGL3(4×48) reporter)	Mmp13 expression (Mmp13)	block of Kv4.2 potassium channel [3]	block of voltage-gated potassium channel Kv1 and 4 classes [4]
Nc1ccncc1 [4-AP, 4-aminopyridine]	significantly induces						
CCCCOC(=O)c1ccc(N)cc1 [butamben, butyl 4-aminobenzoate]	significantly increase	increased Sox9 expression	low micromolar concentrations of butamben stimulate chondrogenic activity	increased	markedly decreased	blocked	blocks
B1				increased	increased		
